Results taken from US11485742B2, “2-azaspiro[3.4]octane derivatives as M4 agonists” (NOVARTIS AG, priority 2019, dated 2022).

Key:
[1] = target: T1, human cloned CHRM4 receptor (Homo sapiens, UniProt P08173); test: CHRM4 Ca++ Flux Assay (M4_CHO cells, agonist mode); type: cell-based; conditions: for Emax / M4 FDSS PA %: Percent Activity (PA); for Emax: read-out: M4 FDSS PA %; for EC50: geometric mean if tested more than once, read-out: M4 FDSS EC50
T1 construct: expressed in transfected cells; host or cells: CHO-K1 (M4_CHO)
T1 sequence (P08173 1-479): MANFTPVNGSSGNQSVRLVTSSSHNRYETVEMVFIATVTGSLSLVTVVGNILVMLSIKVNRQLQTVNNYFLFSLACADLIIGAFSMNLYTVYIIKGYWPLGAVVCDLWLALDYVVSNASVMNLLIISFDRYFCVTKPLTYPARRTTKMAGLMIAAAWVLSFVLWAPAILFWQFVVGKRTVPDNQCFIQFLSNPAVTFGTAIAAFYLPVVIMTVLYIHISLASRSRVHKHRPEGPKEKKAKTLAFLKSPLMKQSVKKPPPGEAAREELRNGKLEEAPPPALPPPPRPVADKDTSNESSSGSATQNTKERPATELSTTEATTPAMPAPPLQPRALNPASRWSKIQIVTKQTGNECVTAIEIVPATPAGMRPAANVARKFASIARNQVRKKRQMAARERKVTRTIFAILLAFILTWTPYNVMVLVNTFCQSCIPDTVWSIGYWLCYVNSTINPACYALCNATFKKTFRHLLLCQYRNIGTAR
Description: (§1) The above examples were characterized by measuring the intracellular mobilization of Ca^++ ions caused by signaling events mediated by the receptor. The Intra-cellular Calcium flux levels were captured by the highly sensitive Ca^++ indicator, Calcium Assay Kit (BD Biosciences; Catalog Number 640178. The fluorescent activity from all receptors were monitored by the fluorescent imager, FDSS 7000EX (Hamamatsu) over a span of 3 minutes. The change in Calcium flux was readily captured upon activation with the muscarinic orthosteric agonist, Carbachol.
(§2) CHO-K1 cells stably expressing the human cloned CHRM4 receptor (M4_CHO cells) were grown and maintained in a monolayer culture with F12/HAM (Life Technologies) supplemented with 10% Fetal Bovine Serum, 1X Pen-Strep, and 0.4 mg/mL Geneticin in a humidified atmosphere (5% CO2) at 37° C. The cultures were grown to 80-90% confluency in T150 flasks (Corning) and washed with 1×DPBS then lifted with 0.05% Trypsin (Life Technologies). The cells were harvested in growth media then spun (1K rpm, 3 minutes) and cryopreserved using Recovery Cell Culture Freezing Media (Gibco Technologies). Cells were stored in liquid nitrogen and thawed a day before the assay.
Prior to the day of the assay, stable M4_CHO cells were thawed and plated on 384 well black walled clear bottom TC treated plates (Greiner Cat #781091) at 12K cells/well using F12/HAM Media supplemented with 10% FBS (Life Technologies) and kept overnight in a humidified atmosphere (5% CO2) at 37° C. The next day, cells were loaded with 20 μL Ca^++ dye (BD Biosciences) using Loading Buffer (HBSS +Ca/+Mg, 20 mM HEPES, 2.5 mM Probenecid) and placed back in cell incubator for a minimum of 1 hour. After incubation, the dye was replaced with 45 μL Assay Buffer (HBSS −Ca/−Mg, 20 mM HEPES, 2.5 mM Probenecid) supplemented with 20 μM ATP (Sigma Aldrich) and kept at room temperature in the dark for 60 minutes before running on a cell imager. The FDSS 7000EX (Hamamatsu) was used to capture Ca^++ traces for a span of 3 minutes from cells treated with 11 point dose of compound in triplicate in order to generate dose response curves in agonist mode. All compounds were serially diluted in DMSO then prepared in Assay Buffer for Ca^++ flux studies. The dose response curves were generated from the average of triplicate wells obtained from each data point and used a non-linear regression of four parameter dose response algorithm. The Percent Activity (PA) was measured to EC100 of Carbachol.
(§3) If an Example was tested more than once in an assay, then the values below represent the geometric mean of the results from each independent experiment.

[2] = target: T2, human cloned CHRM2 receptor (Homo sapiens, UniProt P08172); test: CHRM2 Ca++ Flux Assay (M2_CHO cells, agonist mode); type: cell-based; conditions: M2 CHO cells; for EC50: agonist mode, geometric mean if tested more than once, read-out: M2 FDSS EC50; for Emax / M2 FDSS PA %: Percent Activity (PA) measured to EC100 of Carbachol; for Emax: read-out: M2 FDSS PA %
T2 construct: expressed in transfected cells; host or cells: CHO-K1 (M2_CHO)
T2 sequence (P08172 1-466): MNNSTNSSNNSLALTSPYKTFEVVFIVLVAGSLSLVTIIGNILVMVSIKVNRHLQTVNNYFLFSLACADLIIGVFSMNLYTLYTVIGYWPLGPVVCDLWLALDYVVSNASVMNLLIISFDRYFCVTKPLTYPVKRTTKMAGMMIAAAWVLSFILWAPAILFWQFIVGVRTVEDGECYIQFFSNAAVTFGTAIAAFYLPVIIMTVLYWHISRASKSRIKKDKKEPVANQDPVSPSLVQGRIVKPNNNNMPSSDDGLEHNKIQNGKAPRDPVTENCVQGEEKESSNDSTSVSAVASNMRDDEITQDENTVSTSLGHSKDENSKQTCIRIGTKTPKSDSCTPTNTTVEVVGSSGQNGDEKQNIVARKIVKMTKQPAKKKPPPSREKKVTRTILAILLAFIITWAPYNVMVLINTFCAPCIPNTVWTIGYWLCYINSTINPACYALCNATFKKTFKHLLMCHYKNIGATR
Description: as §1
as §2, with “cloned CHRM2” for “cloned CHRM4”, “receptor (M2_CHO” for “receptor (M4_CHO”, “Serum, 1×Pen-Strep,” for “Serum, 1X Pen-Strep,”, “1×DPBS and” for “1×DPBS then”, “were” for “were harvested in growth media”, “and frozen” for “and cryopreserved”
Prior to the day of the assay, stable M2 CHO cells were thawed and plated on Greiner 384 well TC treated plate at a density of 12K cells/well and kept overnight in a humidified atmosphere (5% CO2) at 37° C. The following day, the cells were loaded with Ca^++ dye (BD Biosciences) using Loading Buffer (HBSS +Ca/+Mg, 20 mM HEPES, 2.5 mM Probenecid) and placed back in cell incubator for a minimum of 1 hour and maximum of 2 hours. After incubation, the dye was replaced with Assay Buffer (HBSS −Ca/−Mg, 20 mM HEPES, 2.5 mM Probenecid) supplemented with 20 μM ATP (Sigma Aldrich) and kept at room temperature for 60 minutes prior before running on cell imager. The FDSS 7000EX (Hamamatsu) was used to acquire Ca^++ traces from cells in response to compound treatment and the data was used to generate dose response curves in agonist mode. All compounds were serially diluted in DMSO then prepared in Assay Buffer for Ca^−+ flux studies. The dose response curves were generated from the average of triplicate wells obtained from each data point and used a non-linear regression of four parameter dose response algorithm. The Percent Activity (PA) was measured to EC100 of Carbachol.
as §3

| Emax [1] [%] | EC50 [1] [nM] | EC50 [2] [nM] | Emax [2] [%] | M4 FDSS PA % [1] [%] | M2 FDSS PA % [2] [%] | SMILES |
| --- | --- | --- | --- | --- | --- | --- |
|  | 130 | 1160 |  | 81 | 26 | Fc1ccc(O[C@H]2CCCOC2)c(C2CCN([C@@H]3COC4(C3)CN(c3nnco3)C4)CC2)c1 (single isomer, unassigned) [Example 2Q, (S)-7-(4-(5-fluoro-2-(((S)-tetrahydro-2H-pyran-3-yl)oxy)phenyl)piperidin-1-yl)-2-(1,3,4-oxadiazol-2-yl)-5-oxa-2-azaspiro[3.4]octane or (S)-7-(4-(5-fluoro-2-(((R)-tetrahydro-2H-pyran-3-yl)oxy)phenyl)piperidin-1-yl)-2-(1,3,4-oxadiazol-2-yl)-5-oxa-2-azaspiro[3.4]octane] |
|  | 124 | 4290 |  | 81 | 23 | OC[C@H]1C[C@H](Oc2ccc(F)cc2C2CCN([C@@H]3COC4(C3)CN(c3nnco3)C4)CC2)C1 (single isomer, unassigned) [Example 2II, ((1S,3r)-3-(2-(1-((S)-2-(1,3,4-oxadiazol-2-yl)-5-oxa-2-azaspiro[3.4]octan-7-yl)piperidin-4-yl)-4-fluorophenoxy)cyclobutyl)methanol or ((1R,3s)-3-(2-(1-((S)-2-(1,3,4-oxadiazol-2-yl)-5-oxa-2-azaspiro[3.4]octan-7-yl)piperidin-4-yl)-4-fluorophenoxy)cyclobutyl)methanol] |
| 79 | 38 | 456 | 32 |  |  | Fc1ccc(OC[C@@H]2COCCO2)c(C2CCN([C@@H]3COC4(C3)CN(c3nncs3)C4)CC2)c1 [Example 5L, (S)-7-(4-(2-(((S)-1,4-dioxan-2-yl)methoxy)-5-fluorophenyl)piperidin-1-yl)-2-(1,3,4-thiadiazol-2-yl)-5-oxa-2-azaspiro[3.4]octane] |
| 99 | 15 | 443 | 40 |  |  | Fc1ccc(O[C@@H]2CCOC2)c(C2CCN([C@@H]3COC4(C3)CN(c3nncs3)C4)CC2)c1 [Example 5H, (S)-7-(4-(5-fluoro-2-(((R)-tetrahydrofuran-3-yl)oxy)phenyl)piperidin-1-yl)-2-(1,3,4-thiadiazol-2-yl)-5-oxa-2-azaspiro[3.4]octane] |
| 58 | 86 | 9700 | 25 |  |  | CC(C)(O)CCOc1ccc(F)cc1C1CCN([C@@H]2COC3(C2)CN(c2nncs2)C3)CC1 [Example 5P, (S)-4-(2-(1-(2-(1,3,4-thiadiazol-2-yl)-5-oxa-2-azaspiro[3.4]octan-7-yl)piperidin-4-yl)-4-fluorophenoxy)-2-methylbutan-2-ol] |
| 76 | 13 | 657 | 35 |  |  | Fc1ccc(OC2COC2)c(C2CCN([C@@H]3COC4(C3)CN(c3nncs3)C4)CC2)c1 [Example 5G, (S)-7-(4-(5-fluoro-2-(oxetan-3-yloxy)phenyl)piperidin-1-yl)-2-(1,3,4-thiadiazol-2-yl)-5-oxa-2-azaspiro[3.4]octane] |

Continued, compound first:

| SMILES | Emax [1] [%] | EC50 [1] [nM] | EC50 [2] [nM] | Emax [2] [%] | M4 FDSS PA % [1] [%] | M2 FDSS PA % [2] [%] |
| --- | --- | --- | --- | --- | --- | --- |
| Fc1ccc(OC[C@H]2COCCO2)c(C2CCN([C@@H]3COC4(C3)CN(c3ncco3)C4)CC2)c1 [Example 4B, (S)-7-(4-(2-(((R)-1,4-dioxan-2-yl)methoxy)-5-fluorophenyl)piperidin-1-yl)-2-(oxazol-2-yl)-5-oxa-2-azaspiro[3.4]octane] | 77 | 4 | > 25000 | 32 |  |  |
| Fc1ccc(OC2CC3(COC3)C2)c(C2CCN([C@@H]3COC4(C3)CN(c3ncco3)C4)CC2)c1 [Example 4G, (S)-7-(4-(2-((2-oxaspiro[3.3]heptan-6-yl)oxy)-5-fluorophenyl)piperidin-1-yl)-2-(oxazol-2-yl)-5-oxa-2-azaspiro[3.4]octane] | 68 | 17 | 13100 | 58 |  |  |
| c1ccc(C2CCN([C@@H]3COC4(C3)CN(c3ncco3)C4)CC2)c(-c2cncnc2)c1 [Example 4R, (S)-2-(oxazol-2-yl)-7-(4-(2-(pyrimidin-5-yl)phenyl)piperidin-1-yl)-5-oxa-2-azaspiro[3.4]octane] | 70 | 3 | 203 | 12 |  |  |
| Fc1ccc(C2CCOCC2)c(C2CCN([C@@H]3COC4(C3)CN(c3nnco3)C4)CC2)c1 [Example 3D, (S)-7-(4-(5-fluoro-2-(tetrahydro-2H-pyran-4-yl)phenyl)piperidin-1-yl)-2-(1,3,4-oxadiazol-2-yl)-5-oxa-2-azaspiro[3.4]octane] | 84 | 63 | 1920 | 48 |  |  |
| c1ccc(C2CCN([C@@H]3COC4(C3)CN(c3ncco3)C4)CC2)c(OC2COC2)c1 [Example 4C, (S)-2-(oxazol-2-yl)-7-(4-(2-(oxetan-3-yloxy)phenyl)piperidin-1-yl)-5-oxa-2-azaspiro[3.4]octane] | 80 | 7 | 433 | 38 |  |  |
| Cc1nc(COc2ccccc2C2CCN([C@@H]3COC4(C3)CN(c3nncs3)C4)CC2)no1 [Example 5F, (S)-7-(4-(2-((5-methyl-1,2,4-oxadiazol-3-yl)methoxy)phenyl)piperidin-1-yl)-2-(1,3,4-thiadiazol-2-yl)-5-oxa-2-azaspiro[3.4]octane] | 90 | < 0.4 | 73 | 51 |  |  |
